In a melting point compilation (Tetko et al.; mined from patent text by program, amines drawn as free bases though some values may be those of a salt):

Structure (SMILES)	melting point [°C]
Cc1noc(C2CN3CCC2CC3)n1 (centres undefined)	112 to 115
O=C(O)C1=Cc2c(cc(Cl)c(Cl)c2Cl)OC1C(F)(F)F (centres undefined)	236 to 239
CCNC(=O)c1cc2ccc(OC)cc2n1CCNC(C)=O	135 to 136
CC(=O)OC1CSC(Oc2ccncc2)C(OC(C)=O)C1OC(C)=O (centres undefined)	152 to 158
Cc1cc(COc2ccc(S(=O)(=O)NC[C@@H](C(=O)NO)N3CCN(Cc4ccc(F)cc4)CC3)cc2)c2ccccc2n1	180
O=C1CCCCC1n1nc(-c2c(-c3ccccc3)nn3ccccc23)ccc1=O (centres undefined)	166 to 168
c1ccc(Sc2cc3cc4cc5ccccc5cc4cc3cc2Sc2ccccc2)cc1	> 260
C=C(C)C(=O)OCCOCCOC(=O)c1ccc(O)c(Cl)c1	57 to 58.5
CN(C)C=C1CC(=O)c2ccccc2NC1=O	203 to 205
CCn1ccc(=O)c2cnc(-c3cccnc3)nc21	195 to 196
N#Cc1nc(Cl)nc(N2CCS(=O)(=O)CC2)c1Cl	198 to 199
Cc1c(Cl)c(N)cc(Cl)c1Oc1ccc(Cl)cc1Cl	96 to 97
CCOC(=O)C1(C(=O)OCC)CCC2(CC1)c1ccc(O)cc1CCN2C(=O)OCc1ccccc1	123 to 124
NC(=O)c1cc2c(Sc3ccccn3)cncc2s1	239 to 242
Cc1ccc(-c2nc3ccc(Cl)nc3n2CC(=O)N(C)C)cc1	182 to 185
CN(CCc1cccc(OCC(=O)O)c1)c1cnc(-c2ccccc2)c(-c2ccccc2)n1	174 to 176
COc1cc(C#N)ccc1Cc1c[nH]c2ccc([N+](=O)[O-])cc12	204 to 206
Nc1nn(-c2ccccc2)cc1C=O	129 to 130
CC1(C)OC(c2ccc(S(N)(=O)=O)c(Cl)c2)=C(c2ccccc2)C1=O	193 to 194
Clc1ccc2c(c1)[C@@H](c1ccccc1)[C@H]1CN(Cc3ccccc3)C[C@H]1C2 (racemic)	115 to 117
COc1ccc(Cn2cc(C(=O)NCCN(C)C)c3nc4c(C)cccc4cc3c2=O)cc1OC	213 to 214
CNC(=O)c1c(-c2ccccn2)c2ccccc2n(C)c1=O	239 to 240
Cc1cnc(NC(=O)c2cc(Oc3cnc(C(=O)N(C)C)cn3)cc(O[C@@H](C)COC(F)F)c2)cn1	75
CCOC(C)OC(C)(C)CCCC(C)C1CCC2C3CC=C4CC(O)CC(O)C4(C)C3CCC12C (centres undefined)	128 to 130
CCC(=O)Nc1c([N+](=O)[O-])cnn1-c1ncc(Cl)cc1Cl	53 to 56
CC(CCC(=O)NC(C)(C)CO)C1CCC2C3C(=O)CC4CC(O)CCC4(C)C3CCC12C (centres undefined)	220 to 222
O=C1N[C@H](Cc2cccc(C(F)(F)F)c2)[C@H](c2ccc(F)cc2)O1 (racemic)	177 to 178

Structure (SMILES)	melting point [°C]
COC(=O)c1ccc(O)cn1	188 to 190
COc1cccc(N)c1C#N	143 to 146
CC(C)NC(=O)CS(=O)CC(=O)c1ccc(-c2ccccc2)cc1 (centres undefined)	138
COc1cccc(-c2c(Cl)c(CCl)nc3sc4c(c23)CCN(Cc2ccccc2)C4)c1OC	137 to 138
Cc1cc([N+](=O)[O-])cc(C)c1Oc1ccc([N+](=O)[O-])c(Nc2ccc(C#N)cc2)n1	250 to 252
Cc1cc(Br)c2nc(Cl)ccc2c1	107 to 108
O=[N+]([O-])N=C1SCCN1Cc1ccncc1	151 to 152
COC(=O)c1nnc2n1-c1ccc(Cl)cc1C(c1ccccc1)=NC2	216 to 217
O=C(Nc1cccc(C(F)(F)F)c1)N1CCN(Cc2ccc(Nc3ccnc4cc(C(F)(F)F)ccc34)cc2)CC1	198 to 200
CN1C(=O)[C@H](NC(=O)c2cc3ccccc3[nH]2)N=C(c2ccccc2)c2ccccc21	167 to 177
CCCc1c(OCCCOc2ccc(C(C)=O)c(OCCCC(=O)OCC)c2CCC)ccc(C(C)=O)c1O	77 to 79
CCC(CC)CNC(=O)c1ccc2cccc(Cc3ccc(C(=O)NS(=O)(=O)c4ccccc4C)cc3OC)c2c1	126 to 128
NS(=O)(=O)c1ccccc1OCCO	94 to 99
Cc1cc(=O)n(-c2cc(OC(C)C)c(Cl)cc2F)c(=O)n1C(F)F	97 to 99
CNC(=S)Nc1cc(C(=O)OC)c(O)c2ncc(Cc3ccc(F)cc3)cc12	189 to 191
CCSc1ccnc(Cl)c1C#N	97 to 98
O=C(Oc1ccccc1)N1Cc2ccccc2C2(Cc3ccc(Cl)cc3O2)C1 (centres undefined)	138 to 140
Oc1ccc(Cl)cc1CN1CCCCC1	53 to 56
COc1cc(Nc2c(C#N)cnc3cc4cc(OC)c(OCCN5CCOCC5)cc4cc23)c(Cl)cc1F	204 to 214
Cc1[nH]c(=S)[nH]c1C(=O)c1ccccc1	268 to 269
CC(=O)c1ccc(-c2ccc(C#N)o2)cc1	122 to 125
CCOC(=O)c1cc2cc(F)cc(NS(=O)(=O)c3cccs3)c2[nH]1	174 to 175
O=C1NC2(CCCC2)CCCC1Cl (centres undefined)	109 to 111
CN1C(=O)c2cc(N/C(=C3\C(=O)Nc4ccc([N+](=O)[O-])cc43)c3ccccc3)ccc2C(C)(C)C1=O	169 to 171
Clc1ccc(OCOCOc2ccc(Cl)cc2)cc1	53.5 to 54
CC(C)=NNC(=O)NCCCN(C)CCCNC(=O)NN=C(C)C	113 to 114

Continued, values first:

melting point [°C]	Structure (SMILES)
146 to 148	CC(C)n1nc(-c2c(-c3ccccc3)nn3ccc(OCC(=O)NC4CCC(O)CC4)cc23)ccc1=O (centres undefined)
53	C=CC1(CO)OC(OC2C(COCc3ccccc3)OC(OC)C(OCc3ccccc3)C2OCc2ccccc2)C(OC(C)=O)C(OC)C1O (centres undefined)
99 to 102	NC(=O)C1(N)CCCCC1
202 to 204	O=C(Nc1ccc(F)c([N+](=O)[O-])c1)c1ccc(Cl)c(Cl)c1
203 to 204	Cn1c(=O)ccn(C2C=CC(CO)O2)c1=O (centres undefined)
121	CC(=N)Nc1cc(C)ccc1N1CCOCC1
95 to 97	Cc1cc(-c2ccc(F)cc2)co1
313	Cc1ccccc1-c1nc(N)ncc1-c1ccc(=O)[nH]n1
64 to 67	CC(C)CCCC(C)NC(=O)Oc1ccc(Oc2ccccc2)cc1Br (centres undefined)
174 to 176	COc1ccc(NC(=O)c2ccc(F)c(F)c2)cc1NCc1cccc(O)c1
240 to 241	O=C1Nc2ccccc2Oc2cscc21
196 to 198	COc1ncc(Br)c2nc(S(=O)(=O)Nc3c(Cl)cccc3Cl)nn12
113 to 115	N#Cc1cnn2c1N(C(=O)CN1CCN(C(=O)OCc3ccccc3)CC1)CC=C2c1cccc(C(F)(F)F)c1
190 to 193	CSCCCCn1c(C)nc2c(N)nc3ccccc3c21
130 to 133	CCC1=NC(NC(=O)Nc2cccc(C)c2)C(=O)N(CC(=O)N2CC3CCC(CC3)C2)c2c(C)cccc21 (centres undefined)
84 to 85	CCc1cc(N(CC)C(=O)N2CCN(c3cc(C)cc(C)c3)CC2)c(OC)nc1C
220 to 222	CCOC(=O)c1cc2cc(-c3ccc(C(C)=NO)cc3)ccc2o1
128 to 130	CCOCCOC(=O)c1cc2cc(Br)ccc2nn1
67 to 70	Cc1c(C)c2c(c(C)c1O)CC[C@](C)(C(=O)N[C@H]1CCOC1O)O2 (some centres undefined)
118 to 119	COC(=O)Cc1cn(C)nc1O
187	CCOC(=O)CCNC(=O)CNC(=O)c1csc(NC(=O)NCc2ccccc2)n1
104 to 106	CCC(=O)CS(=O)(=O)c1ccc(OS(=O)(=O)c2ccc(C)cc2)cc1
175 to 176	CCOC(=O)c1cn(-c2ccc(OC)cc2)c2c(F)c(F)c(F)c(C)c2c1=O

melting point [°C]	Structure (SMILES)
110 to 111	CCOC(=O)c1c(CN(CC)CC)nc2sc(C)c(C)c2c1-c1ccc(OC)c(OC)c1
230	COc1ccc2c(c1CC#N)Sc1c(ccc(OC)c1CN1C(=O)c3ccccc3C1=O)N2Cc1ccccc1
103 to 105	O=C(O)c1ccccc1NCCCc1ccccc1
270	CC1(C)CC(Nc2nc(Cl)nc(NC3CC(C)(C)NC(C)(C)C3)n2)CC(C)(C)N1
158 to 160	COc1ccc(-n2nc(Sc3ccc(C)c(C)c3)c(C)c(C#N)c2=O)cc1
167 to 168	CCCCCN(C(=O)c1cnc(N2CC(C)(C)NC2=O)nc1N)c1cccc(C(F)(F)F)c1
115 to 119	CN(Cc1cc2c(=O)c(C(=O)NCc3ccc(Cl)cc3)cn(C)c2o1)CC(O)c1ccc(-c2ccccc2)o1 (centres undefined)
70 to 75	C=CC[C@H]1C(=O)N(S(=O)(=O)c2cccc(S(=O)(=O)N(C)C)c2)[C@H]2CCN(C(=O)OCc3ccccc3)[C@H]12 (relative stereo)
224 to 226	O=c1[nH]c2ccc3c(c2[nH]1)OC(CNCCCCc1ccccc1)CO3 (centres undefined)
144 to 146	Clc1cccc2c3c([nH]c12)CCCC3
158 to 159	Cc1ccccc1COc1cccnc1NC(=N)Nc1ccc(Cl)cc1
134	Clc1ccc(COC(C=Cc2ccccc2)Cn2ccnc2)c(Cl)c1 (centres undefined)
202	CS(=O)(=O)c1nccc(-n2nnc3ccccc32)n1
198 to 200	CCCOCCSc1ccc(-c2ccc3c(c2)C=C(C(=O)Nc2ccc(CN(C)C4CCOCC4)cc2)CCS3(=O)=O)cc1
214 to 216	Nc1n[nH]c(-c2ccccc2)c1CC(=O)O
139	Cc1ccc(-c2nccc(-c3ccccc3)n2)cc1[N+](=O)[O-]
155 to 157	Cc1snnc1SCC1=C(C(=O)OC(C)(C)C)N2C(=O)[C@@H](NC(=O)Cc3cccs3)[C@H]2SC1
69 to 71	O=C(CCCN1CCc2ccccc2C1)c1ccc(F)cc1
140 to 141	C=Cc1ccc(OC)c(OC)c1[N+](=O)[O-]
220 to 225	O=C(Cc1ccc(CC(=O)Oc2cc(O)cc(O)c2)cc1)Oc1cc(O)cc(O)c1
70 to 75	Cc1c(C)c2c(c(C)c1OCc1ccccc1)CCC(C)(CC=O)O2 (centres undefined)
90 to 92	ClCc1coc(-c2ccc(Br)o2)n1
201	Nc1ccc2nc(-c3ccccc3)nn2c1
